These results are taken from patent US20080280761A1 (priority 2005, published 2008).

Where two headings read alike, the source gives them in different places.

In assay [1] the test system is weeds. The conditions noted are these: in vivo; cited from earlier work.
For assay [2], the system named is main weeds in the cropland. It is filed as in vivo.
The test system of assay [3] is thylakoid membrane, electron transfer reaction of two photosystems, especially photosystem II. It is filed as biochemical.
Assay [4] deals with Striga hermonthica. The conditions noted are these: 10-4 mol/L; cited from earlier work.

As for `O=C(O)CNCP(=O)(O)O` [glyphosate], the “time to kill the weeds” value in assay [1] is “at least 10 days”.

For `CC(=O)C1=C(O)C(CC(C)C)NC1=O` (stereo not shown) [iso-tenuazonic acid], the “time to distinct toxic symptom” value in assay [2] (sprayed on the stems and leaves, 5 to 800 μg/g) is listed as “five”. Besides, the “time to obvious injuried symptom” value in assay [2] (stem or leaf treatment) stood at 12 h. In assay [3], the apparent quanta efficiency result was “obviously reduce”; the “electron transfer reaction of two photosystems, especially photosystem II” value is “inhibiting”; the “photosynthetic oxygen evolution rate” value is listed as “obviously reduce”. Also, in assay [4], the “inhibitory effect on the seed germination” value is “around 50%”.

On to `CCC(C)C1NC(=O)C(C(C)=O)=C1O` (stereo not shown) [tenuazonic acid], for which, in assay [2] (in vivo), the “time to distinct toxic symptom” value is “five” and the “time to obvious injuried symptom” value amounted to 12 h. For the same molecule, in assay [3], the apparent quanta efficiency entry is reported as “obviously reduce”; the “electron transfer reaction of two photosystems, especially photosystem II” value was “inhibiting”; the “photosynthetic oxygen evolution rate” value is “obviously reduce”. Also, the “inhibitory effect on the seed germination” value in assay [4] is listed as “around 50%”.
